In patent US9212173B2, “Pyrazole aminopyrimidine derivatives as LRRK2 modulators” (Genentech, Inc., priority 2012, dated 2015) one finds Ki data, which are given here for 18 compounds.

The target in the assay is LRRK2 (Homo sapiens (Human), UniProt Q5S007, G2019S). The assay is described as follows: In Vitro LRRK2 Assay (LRRK2 Ki). The class given is biochemical. The method, then: In Vitro LRRK2 Lanthascreen Binding Assay
LRRK2, sequence (Q5S007 whole entry G2019S): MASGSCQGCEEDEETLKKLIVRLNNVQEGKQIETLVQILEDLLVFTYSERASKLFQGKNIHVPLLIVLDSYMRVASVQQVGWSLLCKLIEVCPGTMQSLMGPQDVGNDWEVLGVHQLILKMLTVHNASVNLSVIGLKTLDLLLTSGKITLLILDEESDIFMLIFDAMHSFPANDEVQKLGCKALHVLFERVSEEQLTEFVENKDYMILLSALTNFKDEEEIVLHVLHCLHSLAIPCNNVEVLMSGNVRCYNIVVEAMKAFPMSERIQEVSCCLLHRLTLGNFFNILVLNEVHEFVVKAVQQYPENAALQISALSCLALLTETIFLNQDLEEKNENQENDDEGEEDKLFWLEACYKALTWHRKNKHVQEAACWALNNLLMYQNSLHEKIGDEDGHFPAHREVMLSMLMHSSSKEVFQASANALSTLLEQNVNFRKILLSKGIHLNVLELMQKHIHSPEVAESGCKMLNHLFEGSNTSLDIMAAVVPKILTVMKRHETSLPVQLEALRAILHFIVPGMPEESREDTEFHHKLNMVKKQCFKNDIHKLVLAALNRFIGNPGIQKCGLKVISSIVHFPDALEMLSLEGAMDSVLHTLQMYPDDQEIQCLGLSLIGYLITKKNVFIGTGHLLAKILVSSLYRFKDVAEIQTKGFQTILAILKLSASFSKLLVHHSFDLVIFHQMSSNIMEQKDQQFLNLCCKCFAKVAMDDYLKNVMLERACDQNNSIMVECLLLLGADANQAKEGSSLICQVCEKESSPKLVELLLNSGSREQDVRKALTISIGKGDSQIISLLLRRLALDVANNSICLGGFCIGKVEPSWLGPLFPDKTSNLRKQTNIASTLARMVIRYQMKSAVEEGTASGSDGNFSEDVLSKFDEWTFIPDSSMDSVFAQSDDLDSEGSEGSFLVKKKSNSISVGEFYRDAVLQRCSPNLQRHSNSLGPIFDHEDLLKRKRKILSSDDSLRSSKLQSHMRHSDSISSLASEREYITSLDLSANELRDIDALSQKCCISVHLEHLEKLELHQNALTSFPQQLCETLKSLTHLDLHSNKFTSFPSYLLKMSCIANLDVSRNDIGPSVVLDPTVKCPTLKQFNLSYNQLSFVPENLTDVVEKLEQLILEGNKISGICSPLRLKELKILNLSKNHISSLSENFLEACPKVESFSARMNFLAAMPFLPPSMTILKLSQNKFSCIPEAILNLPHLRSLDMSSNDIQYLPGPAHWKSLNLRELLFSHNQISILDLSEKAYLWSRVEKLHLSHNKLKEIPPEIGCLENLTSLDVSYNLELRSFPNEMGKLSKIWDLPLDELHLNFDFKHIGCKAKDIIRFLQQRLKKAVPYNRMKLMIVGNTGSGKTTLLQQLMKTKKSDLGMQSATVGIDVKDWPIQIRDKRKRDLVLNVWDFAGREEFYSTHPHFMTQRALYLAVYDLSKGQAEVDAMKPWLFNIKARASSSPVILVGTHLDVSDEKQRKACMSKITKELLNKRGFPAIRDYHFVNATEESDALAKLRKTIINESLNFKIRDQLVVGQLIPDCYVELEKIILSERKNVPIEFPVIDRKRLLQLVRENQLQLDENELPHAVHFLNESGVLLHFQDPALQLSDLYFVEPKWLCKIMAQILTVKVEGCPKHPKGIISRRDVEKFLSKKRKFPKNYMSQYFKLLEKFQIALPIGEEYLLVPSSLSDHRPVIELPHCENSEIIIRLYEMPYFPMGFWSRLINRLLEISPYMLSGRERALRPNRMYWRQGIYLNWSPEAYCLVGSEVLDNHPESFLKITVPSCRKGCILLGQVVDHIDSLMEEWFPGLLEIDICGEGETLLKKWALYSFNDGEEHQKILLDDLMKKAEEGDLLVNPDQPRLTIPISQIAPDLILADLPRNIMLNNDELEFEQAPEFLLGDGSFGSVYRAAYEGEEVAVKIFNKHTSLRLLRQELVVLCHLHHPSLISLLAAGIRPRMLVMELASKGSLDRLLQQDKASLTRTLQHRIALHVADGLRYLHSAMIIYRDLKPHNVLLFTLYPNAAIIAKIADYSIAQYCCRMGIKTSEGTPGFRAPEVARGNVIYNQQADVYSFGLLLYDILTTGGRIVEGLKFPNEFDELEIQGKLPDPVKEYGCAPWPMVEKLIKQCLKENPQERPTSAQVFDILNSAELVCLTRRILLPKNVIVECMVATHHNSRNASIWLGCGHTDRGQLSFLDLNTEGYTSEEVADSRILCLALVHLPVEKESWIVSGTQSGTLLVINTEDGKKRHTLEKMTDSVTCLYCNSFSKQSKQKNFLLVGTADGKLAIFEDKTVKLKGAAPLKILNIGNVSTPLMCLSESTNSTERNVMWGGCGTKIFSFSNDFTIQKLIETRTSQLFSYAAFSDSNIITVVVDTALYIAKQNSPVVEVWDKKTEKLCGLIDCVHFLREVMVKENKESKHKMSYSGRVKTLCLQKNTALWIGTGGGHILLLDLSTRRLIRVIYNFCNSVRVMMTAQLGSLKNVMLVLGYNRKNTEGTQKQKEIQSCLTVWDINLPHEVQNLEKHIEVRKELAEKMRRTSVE
This assay was used to determine a compound's potency in inhibiting activity of LRRK2 by determining, Kiapp, IC50, or percent inhibition values.
Binding of the Alexa Fluor® “tracer” to a kinase is detected by addition of a Eu-labeled anti-GST antibody.
12 pt curve. […] Stamp 5 ul to assay plate. Final top test concentration 100 uM
In Reaction Buffer, 5 ul of DMSO (3%) was added to total and blank wells and 5 ul of Eu-labeled anti-GST antibody (6 nM) was added to blank wells. Add 5 ul LRRK2 (30 nM)/Eu-labeled anti-GST antibody (6 nM) mix to compound and total wells.
Incubate plates at room temperature for 1 hour on a plate shaker (gentle shaking). Read on Perkin Elmer EnVision reader HTRF protocol
Subtract mean background values from all data points. Calculate % of control for each test value. Plot % of control vs Compound concentration. Calculate Ki Value (xlfit curve fitting-Morrison equation). Results expressed as a Ki in μM. Equation for Ki: Y=V0*(1−((x+Ki*(1+S/Km)+Et)/(2*Et)−(((x+Ki*(1+S/Km)+Et)^2−(4*Et*x))^0.5)/(2*Et)))
This assay was used to determine a compound's potency in inhibiting activity of LRRK2 by determining, Kiapp, IC50, or percent inhibition values. In a polypropylene plate, LRRK2, fluorescently-labeled peptide substrate, ATP and test compound were incubated together. Using a LabChip 3000 (Caliper Life Sciences), after the reaction the substrate was separated by capillary electrophoresis into two populations: phosphorylated and unphosphorylated. The relative amounts of each were quantitated by fluorescence intensity. LRRK2 Ki was determined according to the equation: Y=V0*(1−((x+Ki*(1+S/Km)+Et)/(2*Et)−(((x+Ki*(1+S/Km)+Et)^2−(4*Et*x))^0.5)/(2*Et))).
Ki values in Table 4 and elsewhere herein are shown in μM.
For serial dilutions, 34.6 μl DMSO was added to columns 3-24.
In Complete Reaction Buffer, substrate was diluted to 4 μM. Equal volumes of Complete Reaction Buffer and 4 μM substrate were combined to obtain the blank. Equal volumes of Complete Reaction Buffer and 4 μM substrate were combined and to the combined solution was added 2× final LRRK2 concentration.
To a 50 μl polypropylene plate, 5 μl/well buffer/substrate was added by hand to Blank wells. A Biomek FX was used to start the kinase reaction (“PLK SAR 23 ATP”). The following were added to the appropriate wells:
The plate was incubated for 2 hours in the dark. Biomek FX was used to stop the kinase reaction (“PLK Stop”), and 10 μl/well Stop solution was added to the Assay Plate. Results were read on the LabChip 3000.
The LabChip 3000 was run using the job “LRRK2 IC50” with the following job settings: […]
By Ki is commonly meant a dissociation constant, usually derived from enzyme kinetics or from competition with a known ligand. Read a low Ki as a stronger hold on the target. `CCNc1nc(Nc2cnn(C(C)(C)c3nncn3C)c2Cl)ncc1C(F)(F)F` [Example 23, N2-(5-chloro-1-(2-(4-methyl-4H-1,2,4-triazol-3-yl)propan-2-yl)-1H-pyrazol-4-yl)-N4-ethyl-5-(trifluoromethyl)pyrimidine-2,4-diamine]: the Ki came to 1.1 nM.

In turn, `CNc1nc(Nc2cnn(CC(C)c3ccn(C)n3)c2C)ncc1C(F)(F)F` (stereo not drawn) [Example 24, N4-methyl-N2-(5-methyl-1-(2-(1-methyl-1H-pyrazol-3-yl)propyl)-1H-pyrazol-4-yl)-5-(trifluoromethyl)pyrimidine-2,4-diamine] returned an inhibition constant (Ki) of 16.6 nM. The result for `CNc1nc(Nc2cnn(CC(C)c3ccn(C)n3)c2C)ncc1C(F)(F)F` (stereo not drawn) [Example 25, N4-methyl-N2-(5-methyl-1-(2-(1-methyl-1H-pyrazol-3-yl)propyl)-1H-pyrazol-4-yl)-5-(trifluoromethyl)pyrimidine-2,4-diamine] reads 108 nM; that for `CNc1nc(Nc2cn(C(C)(C)c3ncccn3)nc2C)ncc1C(F)(F)F` [Example 26, N4-methyl-N2-(3-methyl-1-(2-(pyrimidin-2-yl)propan-2-yl)-1H-pyrazol-4-yl)-5-(trifluoromethyl)pyrimidine-2,4-diamine], 4.3 nM.

Take `CCNc1nc(Nc2cn(C(C)(C)c3nnc(C)o3)nc2Cl)ncc1C(F)(F)F` [Example 27, N2-(3-chloro-1-(2-(5-methyl-1,3,4-oxadiazol-2-yl)propan-2-yl)-1H-pyrazol-4-yl)-N4-ethyl-5-(trifluoromethyl)pyrimidine-2,4-diamine]: the Ki was 3.7 nM. Then `CCNc1nc(Nc2cn(C(C)(C)c3nnc(CC)o3)nc2C)ncc1C(F)(F)F` [Example 29, N4-ethyl-N2-(1-(2-(5-ethyl-1,3,4-oxadiazol-2-yl)propan-2-yl)-3-methyl-1H-pyrazol-4-yl)-5-(trifluoromethyl)pyrimidine-2,4-diamine], with 6.5 nM; and `CCNc1nc(Nc2cn(C(C)(C)c3ncn(C(C)C)n3)nc2C)ncc1C(F)(F)F` [Example 30, N4-ethyl-N2-(1-(2-(1-isopropyl-1H-1,2,4-triazol-3-yl)propan-2-yl)-3-methyl-1H-pyrazol-4-yl)-5-(trifluoromethyl)pyrimidine-2,4-diamine], with 0.6 nM.

For the compound `CCNc1nc(Nc2cn(C(C)(C)c3nncn3C)nc2Cl)ncc1C(F)(F)F` [Example 31, N2-(3-chloro-1-(2-(4-methyl-4H-1,2,4-triazol-3-yl)propan-2-yl)-1H-pyrazol-4-yl)-N4-ethyl-5-(trifluoromethyl)pyrimidine-2,4-diamine], the affinity corresponds to a Ki of 42.5 nM. This Ki lies about 71-fold higher than the previous one. Then `CCNc1nc(Nc2cn(C(C)(C)c3ncn(C)n3)nc2Cl)ncc1C(F)(F)F` [Example 32, N2-(3-chloro-1-(2-(1-methyl-1H-1,2,4-triazol-3-yl)propan-2-yl)-1H-pyrazol-4-yl)-N4-ethyl-5-(trifluoromethyl)pyrimidine-2,4-diamine], with 0.5 nM; and `CNc1nc(Nc2cnn(CCc3ccn(C)n3)c2C)ncc1C(F)(F)F` [Example 33, N4-methyl-N2-(5-methyl-1-(2-(1-methyl-1H-pyrazol-3-yl)ethyl)-1H-pyrazol-4-yl)-5-(trifluoromethyl)pyrimidine-2,4-diamine], with 2 nM; and `CNc1nc(Nc2cn(CCc3ccn(C)n3)nc2C)ncc1C(F)(F)F` [Example 36, N4-methyl-N2-(3-methyl-1-(2-(1-methyl-1H-pyrazol-3-yl)ethyl)-1H-pyrazol-4-yl)-5-(trifluoromethyl)pyrimidine-2,4-diamine], with 3.7 nM. Then `CNc1nc(Nc2cnn(C3CCOC[C@@H]3F)c2C)ncc1C(F)(F)F` (stereo partly drawn) [Example 40, N2-(1-((3R)-3-fluorotetrahydro-2H-pyran-4-yl)-5-methyl-1H-pyrazol-4-yl)-N4-methyl-5-(trifluoromethyl)pyrimidine-2,4-diamine], with 0.6 nM; and `CNc1nc(Nc2cn(C(C)(C)CC#N)nc2C)ncc1C(F)(F)F` [Example 41, 3-methyl-3-(3-methyl-4-((4-(methylamino)-5-(trifluoromethyl)pyrimidin-2-yl)amino)-1H-pyrazol-1-yl)butanenitrile], with 12.8 nM. The result for `CCC(C#N)Cn1cc(Nc2ncc(C(F)(F)F)c(NC)n2)c(C)n1` (stereo not drawn) [Example 42, 2-((3-methyl-4-((4-(methylamino)-5-(trifluoromethyl)pyrimidin-2-yl)amino)-1H-pyrazol-1-yl)methyl)butanenitrile] reads 4.1 nM; that for `CCNc1nc(Nc2cc(C(C)(C)C#N)nn2C)ncc1C(F)(F)F` [Example 44, 2-(5-((4-(ethylamino)-5-(trifluoromethyl)pyrimidin-2-yl)amino)-1-methyl-1H-pyrazol-3-yl)-2-methylpropanenitrile], 0.7 nM. As to `CNc1nc(Nc2cc(C(C)(C)C#N)nn2C)ncc1C(F)(F)F` [Example 45, 2-methyl-2-(1-methyl-5-((4-(methylamino)-5-(trifluoromethyl)pyrimidin-2-yl)amino)-1H-pyrazol-3-yl)propanenitrile], the Ki is 8.6 nM. `Cc1nn(C(C)(C)C#N)cc1Nc1ncc(C#N)c(NC2CC2)n1` [Example 46, 2-((1-(2-cyanopropan-2-yl)-3-methyl-1H-pyrazol-4-yl)amino)-4-(cyclopropylamino)pyrimidine-5-carbonitrile] yielded a Ki of 3 nM. Compared with the last compound, the Ki is about 2.9-fold lower.

In turn, `CCNc1nc(Nc2cc(C#N)nn2C)ncc1C(F)(F)F` [Example 50, 5-((4-(ethylamino)-5-(trifluoromethyl)pyrimidin-2-yl)amino)-1-methyl-1H-pyrazole-3-carbonitrile] gave a Ki of 24.5 nM.
